Laboratory results reported in patent publication US8932807B2, “High throughput in vitro translation (cell-lysate based) assay for detecting quorum sensing signals” (University of South Carolina, priority 2007, dated 2015).

Tests used:
Type in all cases: biochemical, Agrobacterium tumefaciens NTL4 (pCF218)(pCF372)
receptor protein TraR [1] = target: T1, receptor protein TraR (Agrobacterium tumefaciens, UniProt P33905); test: cell-free lysate luminescence assay (Beta-Glo) for detection of AHLs; details: for detection of the AHL by the cell-free assay: comparison of absorbance and luminescence assays; for minimum concentration of AHL resulting in an induction ratio greater than 3, Luminescence assay: cell-free lysate, Beta-Glo, 30° 2 h + 1 h, means±SD (n=3); for level that can be detected, luminescence assay / minimum detection limit, luminescence assay: summary statement
T1 construct: expressed in transfected cells; host or cells: Agrobacterium tumefaciens NTL4 (pCF218)(pCF372); crude cell-free lysate (supernatant of sonicated cells)
Method: From step 5) • 6) 50 μl of sample solution containing AHLs was added in 96-well plate. • 7) 50 μl of assay reagent diluted in 20 mM KH2PO4 was added into each well, mix and incubate at 30° for 2 h. • 8) 100 μl of an appropriate luminescent substrate (e.g. β-Glo, Promega) was added into each well, mix and incubate and incubate at 30° C. for 1 h. • 9) luminescence was read by microplate luminometer (e.g. Veritas Turner BioSystems). This experiment is discussed in greater detail below.
(§1) Preparation of cell-free lysate. One liter of the reporter strain was grown in AT minimum glucose media (30° C. with shaking for 18 h) to early exponential-phase and then harvested by centrifugation (12,000×g; 10 min). Cell pellets were collected and resuspended in 5 ml of KH2PO4 buffer (100 mM; pH 7.4), then sonicated for 30 sec. three times and centrifuged (12,000×g) at 4° C. for 30 min to remove particulate cell fragments. The supernatant was collected as the ‘cell-free lysate (CFL)’ reagent, and was stored (−80° C.) until use.
Comparison of absorbance and luminescence assays. To improve the sensitivity of the cell-free approach, a luminescence assay was developed for AHLs. The protocol involved: 1) addition of 50 μl of sample solution containing AHLs into a 96-well plate; 2) addition of 50 μl of cell-free extract, diluted in 20 mM KH2PO4 buffer (pH 7.0) resulting in a protein concentration of 80 μg/ml for each well, and then mixed and incubated at 30° for 2 h; 3) addition of 100 μl of β-Glo® (Promega) into each well, followed by mixing and incubation (30° C. for 1 h); and 4) measurement of luminescence using a Veritus Microplate Luminometer (Turner BioSystems). For control wells, 20 mM KH2PO4 (pH 7.0) buffer was used. To determine the detection limit, a 1:1 serial dilution of each AHL was performed in triplicate using 20 mM KH2PO4 (pH 7.0) buffer. Then, absorbance assays were conducted. Induction of β-galactosidase activity was calculated by dividing the sample absorbance or luminescence with that of controls. An induction ratio greater than 3 was considered active (27).

receptor protein TraR [2] = target: T1, receptor protein TraR; test: cell-free lysate absorbance assay (X-Gal, 635 nm) for detection of AHLs; details: for minimum concentration of AHL resulting in an induction ratio greater than 3, Absorbance assay: cell-free lysate, X-Gal, absorbance 635 nm, means±SD (n=3)
Method: Absorbance Assay • 1) A culture of A. tumefaciens NTL4 (pCF218)(pCF372) was grown in 250 ml of AT minimal glucose media plus streptomycin (50 μg/ml) and tetracycline (5 μg/ml) at 30° C. with shaking for 18 hrs. • 2) The resulting cell culture was centrifuged at 10,000 rpm for 10 min. to collect cell pellets. • 3) The collected cell pellets were sonicated in 8 ml of 0.1 M KH2PO4 (pH 7.0) buffer to produce a homogenate. • 4) The sonicated homogenate was centrifuged at 50,000 rpm for 30 min. and the supernatant solution was collected. • 5) The supernatant solution was stored at −20° C. until the experiment. • 6) 50 μl of a sample solution containing AHLs was added to the wells of a 96-well plate. • 7) 50 μl of the collected supernatant solution from step (5), along with 100 μl of 20 mM KH2PO4, was added and mixed to each sample, and each sample was incubated at 30° for 2 h. • 8) 1 μl of X-Gal (20 mg/ml) was added and mixed into each well, and each sample was incubated at 30° C. for 1 h. • 9) The absorbance of each well was read at 635 nm.
as §1
Confirmation of β-galactosidase expression in vitro cell-free solution. To confirm β-galactosidase expression in cell-free solution, the following simple absorbance assay for AHLs was used. The protocol involved: 1) addition of 50 μl of sample solution containing AHLs into a 96-well plate; 2) addition of 50 μl of cell-free extract and 100 μl of 20 mM KH2PO4 (pH 7.0) into each well, followed by mixing and incubation at 30° C. for 2 h; 3) addition of 1 μl of X-Gal (20 mg/ml) into each well, then mixing and incubation at 30° C. for 1 h; and 4) measurement of absorbance in each well at 635 nm by spectrophotometer (Shimadzu UV-2401 PC UV-VIS, Shimadzu Corp.). To determine the detection limits, 1:1 serial dilutions of each AHL in 20 mM KH2PO4 (pH 7.0) buffer were performed in triplicate. Induction of β-galactosidase activity was calculated by dividing the absorbance of samples by those of controls. An induction ratio greater than 3 was considered active.

[3] = test system: binding of AHL/TraR complex to β-galactosidase promoter; test: inhibition of Reactions 2) and 3) of the cell-free assay by streptomycin; details: 1 μM C8-AHL, 30 min pre-incubation, absorbance, FIG. 5C
Method: Inhibition of Reactions 2) and 3). […] First, 50 μl aliquots of 1 μM C8-AHL solution was added to each tube, followed by addition of cell-free extract. Further, a series of increasing concentrations of streptomycin (i.e. 0, 50, 125, 250, 300 μg) were added to the cell-free extract and incubated for 30 min. prior to the assay (4, 22, 29). Then, β-galactosidase expression was measured by absorbance.

T1 sequence (P33905 whole entry): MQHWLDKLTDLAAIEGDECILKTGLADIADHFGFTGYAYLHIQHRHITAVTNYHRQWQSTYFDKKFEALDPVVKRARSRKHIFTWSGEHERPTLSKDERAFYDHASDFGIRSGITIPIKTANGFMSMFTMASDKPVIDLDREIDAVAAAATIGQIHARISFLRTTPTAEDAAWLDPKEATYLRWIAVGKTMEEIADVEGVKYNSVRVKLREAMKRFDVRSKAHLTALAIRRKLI

Row | SMILES | minimum concentration of AHL resulting in an induction ratio greater than 3, Luminescence assay (receptor protein TraR [1]) | level that can be detected, luminescence assay (receptor protein TraR [1]) | minimum concentration of AHL resulting in an induction ratio greater than 3, Absorbance assay (receptor protein TraR [2]) | minimum detection limit, luminescence assay (receptor protein TraR [1]) | other results
1 | CCCC(=O)N[C@H]1CCOC1=O [C4-AHL, N-butanoyl-homoserine lactone] | – | – | – | – | detection of the AHL by the cell-free assay (receptor protein TraR [1]): not able to detect
2 | CCCCCC(=O)NC1CCOC1=O (stereo not drawn) [C6-AHL, N-hexanoyl-homoserine lactone] | 30 ± 3 nM | low μM level | 335 ± 10 nM | – | –
3 | CCCCCCC(=O)N[C@H]1CCOC1=O [C7-AHL, N-heptanoyl-homoserine lactone] | 25 ± 5 nM | – | 245 ± 8 nM | approximately 10 nM | –
4 | CCCCCCCC(=O)NC1CCOC1=O (stereo not drawn) [C8-AHL, N-octanoyl-homoserine lactone] | 20 ± 2 nM | – | 225 ± 11 nM | approximately 10 nM | absorbance changes (635 nm) proportional to concentration, up to (receptor protein TraR [2]; dose-response of β-galactosidase expression, FIG. 6): up to 2 μM
5 | CCCCCCCCCC(=O)N[C@H]1CCOC1=O [C10-AHL, N-decanoyl-homoserine lactone] | 100 ± 5 nM | low μM level | 1300 ± 20 nM | – | –
6 | CCCCCCCCCCCC(=O)NC1CCOC1=O (stereo not drawn) [C12-AHL, N-dodecanoyl-homoserine lactone] | 200 ± 6 nM | low μM level | 2400 ± 30 nM | – | –
7 | CCCCCCCCCCCCCC(=O)N[C@H]1CCOC1=O [C14-AHL, N-tetradecanoyl-homoserine lactones] | – | – | – | – | detection of the AHL by the cell-free assay (receptor protein TraR [1]): not able to detect
8 | CCCC(=O)CC(=O)N[C@H]1CCOC1=O [oxo-C6-AHL, N-3-oxo-hexanoyl-homoserine lactone] | 17 ± 2 nM | – | 180 ± 25 nM | approximately 10 nM | –
9 | CCCCCC(=O)CC(=O)NC1CCOC1=O (stereo not drawn) [oxo-C8-AHL, N-3-oxo-octanoyl-homoserine lactone] | 10 ± 3 nM | – | 120 ± 10 nM | – | –
10 | [H]/N=C(/N)N[C@H]1[C@H](O)[C@@H](O)[C@H](O[C@@H]2O[C@@H](C)[C@](O)(C=O)[C@H]2O[C@@H]2O[C@@H](CO)[C@H](O)[C@@H](O)[C@@H]2NC)[C@@H](N/C(N)=N\[H])[C@@H]1O [streptomycin] | – | – | – | – | streptomycin additions that reduced assay activities [3]: above 125 μg/ml
